Paper PMC3997178 (Neuron, 2014)
pKi: −log10 of the molar value.

What was measured:
[1] = biological target: GluN1/GluN2A NMDA receptors (Rattus norvegicus, UniProt Q00959); format: cell-based
[2] = test system: GluN1/GluN2D NMDA receptors; assay: TEVC inhibition of currents, GluN1/GluN2D in Xenopus oocytes; format: cell-based, rat
[3] = biological target: GluA2 AMPA receptors (Leu483Tyr, flip) (Rattus norvegicus, UniProt P19491, L504Y); assay: TEVC inhibition of L-glutamate induced currents, non-desensitizing GluA2 mutant; format: cell-based
Sequence of GluA2 AMPA receptors (Leu483Tyr, flip) (P19491 22-883 isoform P19491-2 L504Y limits assumed): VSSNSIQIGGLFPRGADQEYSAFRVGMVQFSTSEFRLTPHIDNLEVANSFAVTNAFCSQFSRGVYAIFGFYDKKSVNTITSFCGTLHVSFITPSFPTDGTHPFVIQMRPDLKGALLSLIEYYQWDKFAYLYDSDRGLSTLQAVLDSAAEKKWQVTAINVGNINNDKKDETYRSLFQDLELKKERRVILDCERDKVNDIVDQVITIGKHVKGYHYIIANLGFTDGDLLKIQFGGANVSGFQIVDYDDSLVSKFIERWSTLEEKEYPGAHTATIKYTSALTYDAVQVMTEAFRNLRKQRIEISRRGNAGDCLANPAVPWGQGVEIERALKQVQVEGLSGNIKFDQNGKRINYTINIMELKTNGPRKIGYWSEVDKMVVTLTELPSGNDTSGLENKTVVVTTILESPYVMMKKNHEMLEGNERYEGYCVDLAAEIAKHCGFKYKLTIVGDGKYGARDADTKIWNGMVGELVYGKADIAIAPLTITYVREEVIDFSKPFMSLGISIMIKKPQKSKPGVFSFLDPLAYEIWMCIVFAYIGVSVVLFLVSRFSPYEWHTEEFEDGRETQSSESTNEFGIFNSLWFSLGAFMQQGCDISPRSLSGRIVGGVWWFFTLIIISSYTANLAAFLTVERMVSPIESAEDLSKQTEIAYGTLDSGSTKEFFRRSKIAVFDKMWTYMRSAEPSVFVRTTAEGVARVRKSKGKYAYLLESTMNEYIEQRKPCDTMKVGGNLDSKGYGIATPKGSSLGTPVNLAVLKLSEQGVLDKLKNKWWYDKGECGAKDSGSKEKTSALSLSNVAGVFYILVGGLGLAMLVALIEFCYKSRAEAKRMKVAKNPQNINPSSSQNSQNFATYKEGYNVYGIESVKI

[4] = biological target: GluN1/GluN2A Tyr730Met NMDA receptor (Rattus norvegicus, UniProt Q00959, Y730M); assay: TEVC mutational analysis, GluN2A Tyr730Met; conditions: Tyr730Met vs wild type
[5] = biological target: GluN1/GluN2A Lys738Met NMDA receptor (Rattus norvegicus, UniProt Q00959, K738M); assay: TEVC mutational analysis, GluN2A Lys738Met; conditions: Lys738Met vs wild type
[6] = biological target: GluN1/GluN2A Tyr730Phe NMDA receptor (Rattus norvegicus, UniProt Q00959, Y730F); assay: TEVC mutational analysis, GluN2A Tyr730Phe; conditions: Tyr730Phe vs wild type
Sequence of GluN1/GluN2A Tyr730Phe NMDA receptor (Q00959 20-1464 Y730F limits assumed, other chains not shown): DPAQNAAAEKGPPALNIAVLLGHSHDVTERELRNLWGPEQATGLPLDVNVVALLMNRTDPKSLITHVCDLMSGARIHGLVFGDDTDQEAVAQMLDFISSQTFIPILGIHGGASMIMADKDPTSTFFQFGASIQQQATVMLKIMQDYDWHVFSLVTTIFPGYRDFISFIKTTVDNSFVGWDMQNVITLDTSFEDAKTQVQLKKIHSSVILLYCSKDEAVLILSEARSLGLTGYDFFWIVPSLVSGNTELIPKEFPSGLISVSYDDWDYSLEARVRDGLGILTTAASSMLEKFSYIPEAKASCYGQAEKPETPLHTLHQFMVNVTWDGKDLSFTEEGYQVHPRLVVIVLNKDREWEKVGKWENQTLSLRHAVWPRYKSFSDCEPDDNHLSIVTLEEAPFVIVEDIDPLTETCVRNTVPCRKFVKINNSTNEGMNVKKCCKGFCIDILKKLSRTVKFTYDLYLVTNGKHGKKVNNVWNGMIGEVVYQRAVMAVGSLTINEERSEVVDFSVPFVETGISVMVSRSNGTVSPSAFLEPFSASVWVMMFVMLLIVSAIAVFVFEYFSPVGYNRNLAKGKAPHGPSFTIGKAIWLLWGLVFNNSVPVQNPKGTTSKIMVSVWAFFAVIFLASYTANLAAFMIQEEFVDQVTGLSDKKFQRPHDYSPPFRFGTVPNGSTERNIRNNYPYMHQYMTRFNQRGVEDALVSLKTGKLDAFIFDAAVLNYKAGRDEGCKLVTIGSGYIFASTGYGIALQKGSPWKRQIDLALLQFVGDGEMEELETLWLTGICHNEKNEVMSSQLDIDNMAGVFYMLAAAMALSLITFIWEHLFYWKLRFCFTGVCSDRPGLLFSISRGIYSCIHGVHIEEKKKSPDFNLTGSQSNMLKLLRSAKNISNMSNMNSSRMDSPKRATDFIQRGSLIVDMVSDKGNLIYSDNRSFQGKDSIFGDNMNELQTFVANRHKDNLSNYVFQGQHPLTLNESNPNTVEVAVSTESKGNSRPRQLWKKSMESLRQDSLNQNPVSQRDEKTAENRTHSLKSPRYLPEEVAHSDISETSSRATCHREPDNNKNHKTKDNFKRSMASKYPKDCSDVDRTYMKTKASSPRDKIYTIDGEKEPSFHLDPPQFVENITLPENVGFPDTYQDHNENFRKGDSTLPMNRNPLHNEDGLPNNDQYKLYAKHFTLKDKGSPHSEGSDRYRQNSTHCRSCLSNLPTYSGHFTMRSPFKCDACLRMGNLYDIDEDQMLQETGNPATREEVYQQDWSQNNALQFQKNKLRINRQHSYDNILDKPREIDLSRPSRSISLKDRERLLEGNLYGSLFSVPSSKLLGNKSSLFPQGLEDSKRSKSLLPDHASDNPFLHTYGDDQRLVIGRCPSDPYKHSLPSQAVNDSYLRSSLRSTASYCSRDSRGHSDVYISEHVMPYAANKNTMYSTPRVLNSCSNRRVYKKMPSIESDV

[7] = biological target: GluN1/GluN2A Tyr730Leu NMDA receptor (Rattus norvegicus, UniProt Q00959, Y730L); assay: TEVC mutational analysis, GluN2A Tyr730Leu; conditions: Tyr730Leu vs wild type
Sequence of GluN1/GluN2A Tyr730Leu NMDA receptor (Q00959 20-1464 Y730L limits assumed, other chains not shown): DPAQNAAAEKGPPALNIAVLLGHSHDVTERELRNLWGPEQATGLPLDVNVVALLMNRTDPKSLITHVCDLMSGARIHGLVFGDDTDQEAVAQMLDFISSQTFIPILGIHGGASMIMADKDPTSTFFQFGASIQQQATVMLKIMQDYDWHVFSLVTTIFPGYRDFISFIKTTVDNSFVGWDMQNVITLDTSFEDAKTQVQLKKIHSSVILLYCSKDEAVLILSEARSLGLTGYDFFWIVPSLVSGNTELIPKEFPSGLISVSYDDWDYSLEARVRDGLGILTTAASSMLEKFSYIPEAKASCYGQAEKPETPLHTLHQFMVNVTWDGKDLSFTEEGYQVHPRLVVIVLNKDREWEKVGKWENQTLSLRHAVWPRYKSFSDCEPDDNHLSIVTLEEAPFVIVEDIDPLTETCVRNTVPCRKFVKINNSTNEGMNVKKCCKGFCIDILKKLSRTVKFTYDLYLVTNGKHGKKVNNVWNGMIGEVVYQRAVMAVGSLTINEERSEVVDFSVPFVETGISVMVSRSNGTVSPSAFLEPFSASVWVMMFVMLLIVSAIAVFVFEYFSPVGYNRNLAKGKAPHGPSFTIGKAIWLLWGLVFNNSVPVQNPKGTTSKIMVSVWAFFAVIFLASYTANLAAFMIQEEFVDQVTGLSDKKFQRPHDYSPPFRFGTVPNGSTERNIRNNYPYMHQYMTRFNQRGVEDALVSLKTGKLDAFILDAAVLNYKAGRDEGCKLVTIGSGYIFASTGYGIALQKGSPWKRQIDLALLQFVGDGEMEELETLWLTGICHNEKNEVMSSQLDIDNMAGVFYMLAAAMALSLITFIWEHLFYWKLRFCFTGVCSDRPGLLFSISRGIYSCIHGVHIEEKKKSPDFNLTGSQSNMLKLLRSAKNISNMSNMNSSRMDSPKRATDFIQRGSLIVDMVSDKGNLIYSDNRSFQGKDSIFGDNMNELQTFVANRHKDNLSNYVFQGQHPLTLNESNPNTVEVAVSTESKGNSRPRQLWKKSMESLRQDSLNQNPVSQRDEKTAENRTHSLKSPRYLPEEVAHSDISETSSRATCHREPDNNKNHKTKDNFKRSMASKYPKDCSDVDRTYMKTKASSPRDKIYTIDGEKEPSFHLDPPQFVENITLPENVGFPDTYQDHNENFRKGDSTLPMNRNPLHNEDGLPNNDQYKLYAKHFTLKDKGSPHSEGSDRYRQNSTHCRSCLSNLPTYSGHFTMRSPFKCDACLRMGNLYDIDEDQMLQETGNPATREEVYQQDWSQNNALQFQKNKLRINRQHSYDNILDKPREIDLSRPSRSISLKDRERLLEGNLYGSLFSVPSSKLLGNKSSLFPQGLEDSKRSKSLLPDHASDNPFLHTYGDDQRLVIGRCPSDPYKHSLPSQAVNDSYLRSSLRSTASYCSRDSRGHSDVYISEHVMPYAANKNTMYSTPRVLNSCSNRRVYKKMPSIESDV

[8] = biological target: GluN1/GluN2A Val713Ala NMDA receptor (Rattus norvegicus, UniProt Q00959, V713A); assay: TEVC mutational analysis, GluN2A Val713Ala; conditions: Val713Ala vs wild type
[9] = biological target: GluN1/GluN2A Tyr737Ala NMDA receptor (Rattus norvegicus, UniProt Q00959, Y737A); assay: TEVC mutational analysis, GluN2A Tyr737Ala; conditions: Tyr737Ala vs wild type
[10] = biological target: GluN1/GluN2A NMDA receptors (Rattus norvegicus, UniProt P35439+Q00959); format: cell-based
[11] = biological target: GluN1/GluN2A Val734Ala NMDA receptor (Rattus norvegicus, UniProt Q00959, V734A); assay: TEVC mutational analysis, GluN2A Val734Ala; conditions: Val734Ala vs wild type
[12] = biological target: GluN1/GluN2A Phe416Ala NMDA receptor (Rattus norvegicus, UniProt Q00959, F416A); assay: TEVC mutational analysis, GluN2A Phe416Ala; conditions: Phe416Ala vs wild type
[13] = biological target: GluK1 kainate receptors (Tyr506Cys Leu768Cys) (Rattus norvegicus, UniProt P22756, L798C/Y536C); assay: TEVC inhibition of L-glutamate induced currents, non-desensitizing GluK1 mutant; format: cell-based
Sequence of GluK1 kainate receptors (Tyr506Cys Leu768Cys) (P22756 31-949 Y536C/L798C): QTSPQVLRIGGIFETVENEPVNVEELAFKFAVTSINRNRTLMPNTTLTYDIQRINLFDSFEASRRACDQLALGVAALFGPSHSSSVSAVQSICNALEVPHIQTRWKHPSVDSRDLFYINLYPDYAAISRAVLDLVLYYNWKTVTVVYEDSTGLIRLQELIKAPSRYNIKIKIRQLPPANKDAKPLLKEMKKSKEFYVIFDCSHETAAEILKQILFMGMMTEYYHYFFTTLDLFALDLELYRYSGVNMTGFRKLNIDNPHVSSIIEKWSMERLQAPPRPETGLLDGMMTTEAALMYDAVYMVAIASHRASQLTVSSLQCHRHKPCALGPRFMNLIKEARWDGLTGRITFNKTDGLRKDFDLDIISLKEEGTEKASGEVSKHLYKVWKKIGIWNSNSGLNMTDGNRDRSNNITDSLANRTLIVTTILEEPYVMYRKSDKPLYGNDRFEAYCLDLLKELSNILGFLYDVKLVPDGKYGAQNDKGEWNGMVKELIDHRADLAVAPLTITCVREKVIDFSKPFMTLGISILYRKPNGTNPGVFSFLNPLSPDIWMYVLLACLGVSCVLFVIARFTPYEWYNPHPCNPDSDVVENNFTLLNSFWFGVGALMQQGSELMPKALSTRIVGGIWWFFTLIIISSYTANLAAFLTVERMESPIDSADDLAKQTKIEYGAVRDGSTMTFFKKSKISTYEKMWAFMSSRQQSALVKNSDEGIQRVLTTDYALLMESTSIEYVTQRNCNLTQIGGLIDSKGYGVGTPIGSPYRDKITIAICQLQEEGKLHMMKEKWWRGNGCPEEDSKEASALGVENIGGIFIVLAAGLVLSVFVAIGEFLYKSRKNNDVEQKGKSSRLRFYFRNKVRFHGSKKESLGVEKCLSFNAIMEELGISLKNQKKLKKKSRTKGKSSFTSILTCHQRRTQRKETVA

[14] = test system: non-NMDA receptors; assay: D-AP5 effect on non-NMDA receptors; format: cell-based; conditions: as high as 100 µM
[15] = biological target: GluK1 Met722Tyr (Rattus norvegicus, UniProt P22756, M752Y); assay: D-AP5 sensitivity of GluK1 Met722 to tyrosine mutant; format: cell-based; conditions: data not shown
Sequence of GluK1 Met722Tyr (P22756 31-949 M752Y): as the sequence (P22756 31-949 Y536C/L798C) above, with C506Y, M722Y, C768L counted along it

[16] = biological target: GluA2 Leu704Tyr (Rattus norvegicus, UniProt P19491, L504Y/L725Y); assay: D-AP5 sensitivity of GluA2 Leu704 to tyrosine mutant; format: cell-based; conditions: data not shown
Sequence of GluA2 Leu704Tyr (P19491 22-883 isoform P19491-2 L504Y/L725Y): as the sequence (P19491 22-883 isoform P19491-2 L504Y limits assumed) above, with L704Y counted along it

[17] = test system: GluN2A containing NMDA receptors; conditions: ref Frizelle et al., 2006; cited from earlier work
[18] = test system: NMDA receptors; conditions: ref Frizelle et al., 2006; Urwyler et al., 1996; cited from earlier work
[19] = 100 µM compound in the presence of 30 µM glutamate

## O=C(O)C1NCCN(C(=O)c2ccc3c(ccc4ccccc43)c2)C1C(=O)O (single isomer, unassigned; (+)) [(+)-PPDA, 1-(Phenanthrene-2-carbonyl)piperazine-2,3-dicarboxylic acid]
[1]; dose-response inhibition, TEVC
  fold weaker potency than (−)-PPDA: 6–7 fold
[2]
  fold higher potency toward GluN1/GluN2D than GluN1/GluN2A: 5–6 fold
[2]; dose-response inhibition
  fold weaker potency than (−)-PPDA: 6–7 fold

## O=C(O)C1NCCN(C(=O)c2ccc3c(ccc4ccccc43)c2)C1C(=O)O (single isomer, unassigned; (-)) [(−)-PPDA, 1-(Phenanthrene-2-carbonyl)piperazine-2,3-dicarboxylic acid]
[3]
  pKi: 5.11
[3]; [19]
  inhibition of current: completely inhibited
[4]
  change in sensitivity: little or no change
[5]
  effect of mutation on potency: increases the (−)-PPDA sensitivity
[6]
  change in sensitivity: increase in (−)-PPDA sensitivity
[7]
  change in sensitivity: little or no change
[8]
  effect of mutation on sensitivity: minor effects
[9]
  effect of mutation on potency: decreases the (−)-PPDA sensitivity
[1]; 100 µM compound in the presence of agonists (100 µM glycine/30 µM glutamate)
  inhibition of current: completely inhibited
[10]
  pKi: 6.09
[11]
  effect of mutation on potency: decreases the (−)-PPDA sensitivity
[12]
  effect of mutation on sensitivity: minor effects
[13]
  pKi: 5.93
[13]; [19]
  inhibition of current: completely inhibited

## N[C@H](CCCP(=O)(O)O)C(=O)O [D-AP5, D-(−)-2-Amino-5-phosphonopentanoic acid]
[14]
  inhibitory effect: no inhibitory effect
[4]
  fold increase in Ki: ~ 80 fold
[5]
  effect of mutation on potency: only minor effects
[6]
  change in sensitivity: five-fold decrease in sensitivity
[7]
  fold increase in Ki: ~ 20 fold
[8]
  effect of mutation on sensitivity: minor effects
[9]
  effect of mutation on potency: only minor effects
[15]
  sensitivity to D-AP5: does not confer sensitivity
[16]
  sensitivity to D-AP5: does not confer sensitivity
[11]
  effect of mutation on potency: only minor effects
[12]
  effect of mutation on sensitivity: minor effects

## C[C@H](N[C@@H](c1cccc2[nH]c(=O)c(=O)[nH]c12)P(=O)(O)O)c1ccc(Br)cc1 [NVP-AAM077]
[17]
  specificity toward GluN2A containing over GluN2B containing NMDA receptors: 5 fold
[18]
  potency: nanomolar potency

## N[C@@H](Cc1cc(-c2ccc(Cl)cc2Cl)cc(CP(=O)(O)O)c1O)C(=O)O [SDZ220-040]
[18]
  potency: nanomolar potency
